Assay results from patent publication US20190269792A1, “NANOPARTICLE COMPOSITIONS COMPRISING CD38 AND METHODS OF USE THEREOF” (Washington University, priority 2016, published 2019).

Experiments:
[1] = test system: MM cells; test: Anti-CD38 chitosan NPs uptake mechanism (endosome co-localization, uptake inhibitors, 4° C.); type: cell-based, human; details: 30 min pre-incubation with inhibitor (cytochalasin D 1 μM, chlorpromazine 2 μM, nystatin 0.5 μg/ml, EGA 2.5 μM), then 2 h NPs
Method: Endocytosis is critical to the uptake of NPs in order to allow toxic effects in cells. MM cells were plated on glass bottom 8 well chambers and allowed to adhere overnight. CellLight Early Endosomes-GFP BacMam 2.0 reagent (targeting rab5) was added to result in a final concentration of 30 particles per cells and allowed to incubate with the cells for 18-24 h. Cells were washed twice with PBS and incubated with AF633 anti-CD38 chitosan NPs for 24 h. Cells were again washed twice with PBS and allowed to stay in phenol red free medium for imaging live under culture conditions of 37° C. and 5% CO2 at specified time points using FV1000 confocal microscope. To understand the process of internalization of anti-CD38 chitosan NPs, MM cells were pre-treated with inhibitors of macropinocytosis and phagocytosis (cytochalasin D), clathrin-mediated endocytosis (chlorpromazine), caveolae-mediated endocytosis (nystatin), or late endocytosis (EGA), prior to exposure to anti-CD38 chitosan NPs. […] MM cells (1×10^6 cell/ml) were pre-incubated at 37° C. with no inhibitor (Ctrl), cytochalasin D 1 μM, chlorpromazine 2 μM, nystatin 0.5 μg/ml, and EGA 2.5 μM or at 4° C. as control of the active uptake for 30 min. Cells were washed with PBS and incubated with AF633 anti-CD38 chitosan NPs for 2 h. Then, cells were washed and analyzed by flow cytometry for the fluorescence intensity of AF633.

[2] = test system: MM cells; test: Effect of macropinocytosis and endocytosis inhibitors on survival of MM cells by MTT; type: cell-based; details: pre-incubation at 37° C. for 30 min; cytochalasin D 1 μM, chlorpromazine 2 μM, nystatin 0.5 μg/ml, EGA 2.5 μM
[3] = test system: MM.1S in 3DTEBM cultures; test: Survival of MM cells in 3D tissue engineered bone marrow (3DTEBM); type: cell-based, human; details: BTZ 10 nM or equivalent, 48 h
Method: MM.1S (pre-labeled with Invitrogen cell tracers DiO (10 μg/ml) for 1 h) were cultured in relevant three-dimensional tissue engineered bone marrow (3DTEBM) cultures through crosslinking of fibrinogen as previously described. The effect of vehicle (control), BTZ as a free drug (10 nM), empty chitosan NPs, non-targeted chitosan NPs loaded with BTZ equivalent amounts to 10 nM, and anti-CD38 chitosan NPs loaded with BTZ equivalent amounts to 10 nM for 48 h was analyzed by flow cytometry. Higher BTZ doses (10 nM) are used in the 3DTEBM based on the known drug resistance of the cells in 3DTEBM cultures. Cell proliferation assays were performed by digestion of 3DTEBM cultures with type I collagenase (25 mg/ml for 2-3 h at 37° C.), followed by flow cytometry analysis using MACSQuant Analyzer (Miltenyi Biotec), and the data was analyzed using FlowJo program v10 (Ashland, Oreg.). Moreover, 3DTEBM cultures treated with AF633 anti-CD38 chitosan NPs loaded with BTZ equivalent amounts to 10 nM were imaged to determine NPs distribution by confocal microscopy after 24 h incubation.

[4] = test system: H929 cells; test: Apoptosis by Annexin V / PI flow cytometry; type: cell-based, human; details: BTZ 5 nM or equivalent, 48 h
Method: H929 cells (1×10^6 cell/ml) were cultured with vehicle (control), BTZ as a free drug (5 nM), empty chitosan NPs, non-targeted chitosan NPs loaded with BTZ equivalent amounts to 5 nM, and anti-CD38 chitosan NPs loaded with BTZ equivalent amounts to 5 nM for 48 h, and apoptosis was analyzed as previously described. Cells were washed and resuspended in 1× Annexin binding buffer, incubated with Annexin V for 15 minutes followed by staining with PI for extra 15 minutes, 1× binding buffer was added, and the cells were analyzed with flow cytometry.

[5] = test system: proteasome; test: Proteasome activity assay (AMC-tagged peptide substrate) in extracts of treated MM cells; type: cell-based, human; details: for effect of inhibition of macropinocytosis or endocytosis pathways on proteasome activity: free drug 5 nM with uptake inhibitors
Method: Cell extracts were prepared in NP-40 lysis buffer from control and treated cells (BTZ as a free drug (5 nM), empty chitosan NPs, non-targeted chitosan NPs loaded with BTZ equivalent amounts to 5 nM, and anti-CD38 NPs loaded with BTZ equivalent amounts to 5 nM) retrieved after 2 h treatment with BTZ. Proteasome activity was determined using the AMC-tagged peptide substrate in a Proteasome Activity Assay Kit (abcam, Cambridge, Mass., USA) according to the manufacturer's protocol. Fluorescence was determined in a SpectraMax i3 Multi-Mode Detection Platform (Molecular Devices, Sunnyvale, Calif., USA) and proteasome activity was expressed as the amount of proteasome which generates 1.0 nmol of AMC per minute at 37° C.
Proteasome activity inhibition was also measured in combination with inhibitors of macropinocytosis and phagocytosis (cytochalasin D), clathrin-mediated endocytosis (chlorpromazine), caveolae-mediated endocytosis (nystatin), or late endocytosis (EGA), prior to exposure to anti-CD38 chitosan NPs loaded with BTZ equivalent amounts to 5 nM. MM cells were pre-incubated at 37° C. with no inhibitor (Ctrl), cytochalasin D 1 μM, chlorpromazine 2 μM, nystatin 0.5 μg/ml, and EGA 2.5 μM for 30 min. Cells were washed with PBS and incubated with anti-CD38 chitosan NPs loaded with BTZ equivalent amounts to 5 nM, then proteasome Activity Assay Kit was followed as in the previous experiment.

[6] = test system: PB MNCs; test: Cell viability of normal PB MNCs by MTT; type: cell-based, human; details: BTZ 5 nM or equivalent, 48 h
Method: MM cell lines (MM.1S, H929, and RPMI8826) and PB MNCs were cultured with vehicle (control), BTZ as a free drug (5 nM), empty NPs, non-targeted NPs loaded with BTZ equivalent amounts to 5 nM, and anti-CD38 NPs loaded with BTZ equivalent amounts to 5 nM for 48 h. Cell viability was assessed using MTT solution followed by absorbance reading at 570 nm using a spectrophotometer as previously described. Briefly, the MTT solution was added to the cells 48 h after starting the treatment, and 2-4 h later the stop solution was added.

[7] = test system: H929 cells; test: Cell cycle by propidium iodide flow cytometry; type: cell-based, human; details: BTZ 5 nM or equivalent, 48 h
Method: Briefly, cells were washed, fixed with 70% ethanol, and washed again with PBS. RNA was degraded by incubation in RNAase for 30 minutes at 37° C., and the DNA was stained with PI solution for 10 minutes, then cells were analyzed by flow cytometry.

[8] = Side effects in vivo (weight loss, hair loss, histological tissue damage); parameters: species or system SCID mice; details: BTZ 1 mg/kg once a week
Method: (§1) MM1s-GFP-Luc cells were injected into forty female, 7-week old SCID mice i.v. at the concentration of 2×10^6 cells per mouse and tumor progression was evaluated using BLI. After 4 weeks, tumor bearing mice were randomized into 4 groups of 10 animals each and treated with: (i) vehicle, (ii) BTZ as a free drug (1 mg/kg once a week), (iii) non-targeted NPs loaded with BTZ equivalent amounts to 1 mg/kg (once a week), (iv) and anti-CD38 NPs loaded with BTZ equivalent amounts to 1 mg/kg (once a week). Tumor progression was followed in the 4 groups twice a week (for 5 weeks) by BLI; moreover the survival, weight, and general health of the animals was followed. In addition, 3 mice were taken from each group 3 weeks after the beginning of the treatment, and specimens of the BM, blood smear, spleen, liver, kidney, brain, spinal-cord and intestine were fixed and pathologically evaluated for treatment efficacy and histological tissue damage.

[9] = test system: MM cell lines (MM.1S, H929, and RPMI8826); test: Cell viability of MM cells by MTT; type: cell-based, human; details: BTZ 5 nM or equivalent, 48 h
Method: MM cell lines (MM.1S, H929, and RPMI8826) and PB MNCs were cultured with vehicle (control), BTZ as a free drug (5 nM), empty NPs, non-targeted NPs loaded with BTZ equivalent amounts to 5 nM, and anti-CD38 NPs loaded with BTZ equivalent amounts to 5 nM for 48 h. Cell viability was assessed using MTT solution followed by absorbance reading at 570 nm using a spectrophotometer as previously described [19]. Briefly, the MTT solution was added to the cells 48 h after starting the treatment, and 2-4 h later the stop solution was added.

[10] = test system: MM cells cultured in normoxic (21% O2) or hypoxic (1% O2) conditions; test: Hypoxia-mediated drug resistance; type: cell-based, human; details: BTZ 5 nM or equivalent, 48 h
Method: Furthermore, the effect of vehicle (control), BTZ as a free drug (5 nM), empty chitosan NPs, non-targeted chitosan NPs loaded with BTZ equivalent amounts to 5 nM, and anti-CD38 chitosan NPs loaded with BTZ equivalent amounts to 5 nM on proliferation of MM cells cultured in normoxic (21% O2) or hypoxic (1% O2) conditions for 48 h was measured.

[11] = test system: MM1s-GFP-Luc cells; test: MM tumor progression and survival in vivo; parameters: species or system SCID mice; details: BTZ 1 mg/kg once a week
Method: as §1

[12] = test system: MM.1S cells; test: Boron cellular accumulation by ICP-OES; type: cell-based, human; details: 100 nM, 1.5 h
Method: MM.1S cells (40×10^6 cell/ml) were cultured with vehicle (control), BTZ as a free drug (100 nM), and anti-CD38 chitosan NPs loaded with BTZ equivalent amounts to 100 nM for 1.5 h. After the treatment the cells were spun down, washed, and cell pellet was digested in nitric acid. After dilution with deionized water, samples were microwave digested and then analyzed by ICP-OES for boron content.

[13] = test system: MM.1S cells co-culture with MM-derived MSP-1 stromal cell line; test: Cell adhesion-mediated drug resistance, co-culture with MSP-1 stroma; type: cell-based, human; details: BTZ 5 nM or equivalent, 48 h
Method: In addition, cell proliferation assay of MM.1S cells co-culture with or without MM-derived MSP-1 stromal cell line with vehicle (control), BTZ as a free drug (5 nM), empty chitosan NPs, non-targeted chitosan NPs loaded with BTZ equivalent amounts to 5 nM, and anti-CD38 chitosan NPs loaded with BTZ equivalent amounts to 5 nM for 48 h was analyzed.

With `Cc1cccc(C)c1NC(=O)N/N=C/c1ccc(Br)cc1` [EGA] the “decrease of the uptake of the anti-CD38 NPs” value (shortened to “decrease”) [1] was “about 25%” and the “effect on cell survival” value [2] was “no effect on cell survival”.
In the case of `C=C1[C@@H](C)[C@H]2[C@H](Cc3ccccc3)NC(=O)[C@]23[C@H](OC(C)=O)/C=C/[C@@](C)(O)C(=O)[C@@H](C)C/C=C/[C@H]3[C@@H]1O` [cytochalasin D], the “decrease” value [1] is reported as “did not affect” and the “effect on cell survival” value [2] is reported as “no effect on cell survival”.
With `CC(C)C[C@H](NC(=O)[C@H](Cc1ccccc1)NC(=O)c1cnccn1)B(O)O` [free BTZ, bortezomib] the “killing of MM cells in the 3DTEBM” value [3] was 8%, the “early apoptosis, late apoptosis and cell death” value [4] was “induced increase early apoptosis and no effect on late apoptosis and death” and the proteasome activity inhibition ([5]; BTZ 5 nM or equivalent, 2 h, MM cells (Experiment 7)) was 50%. For the same molecule, the “inhibition in the proteasome activity” value ([5]; BTZ 5 nM or equivalent, without inhibition of the uptake routs (Experiment 8)) was “about 40%”, the “effect of inhibition of macropinocytosis or endocytosis pathways on proteasome activity” value [5] was “led to any significant effect” and the “effect of inhibition of macropinocytosis or endocytosis pathways on proteasome activity” value ([5]; listed as BTZ) was “did not induce any change”. The “effect on survival of PB MNCs” value [6] was “no effect”, the “effect on cell cycle” value [7] was “induced G0-G1 arrest” and the “hair loss compared to the vehicle-treated group” value [8] was “significant hair loss”. The “killing of MM cells” value [9] was 20%, the “hypoxia-mediated drug resistance (1% O2 versus 21% O2)” value [10] was “induced resistance” and the “day by which all the group died” value [11] was no more than 29 days. The “tumor size by BLI compared to vehicle treatment” value ([11]; 5 weeks) was “efficacious in reducing tumor size”, the “accumulation of BTZ (boron content) in cells versus control” value [12] was “very similar to the levels measured in control” and the “cell adhesion-mediated drug resistance (stroma co-culture versus mono-culture)” value [13] was “induced resistance”.
With `C[C@@H]1[C@H](O)[C@@H](C)/C=C/C=C/CC/C=C/C=C/C=C/C=C/C(O[C@H]2O[C@H](C)[C@@H](O)[C@H](N)[C@@H]2O)CC2O[C@](O)(CC(O)C(O)CCC(O)CC(O)CC(O)CC(=O)O[C@H]1C)CC(O)C2C(=O)O` (stereo partly shown) [nystatin] the “decrease” value [1] was “about 25%” and the “effect on cell survival” value [2] was “no effect on cell survival”.
For `CN(C)CCCN1c2ccccc2Sc2ccc(Cl)cc21` [chlorpromazine], the “decrease” value [1] was “about 25%”.
